{"source": "paper PMC10714930", "about": "“In silico virtual screening for the identification of novel inhibitors against dihydrodipicolinate reductase (DapB) of Mycobacterium tuberculosis, a key enzyme of diaminopimelate pathway” (Microbiology Spectrum, 2023)", "tested_on": "M. tb.pFICTO-dapB", "assay": "microbe, parasite or virus in culture", "format": "cell-based, Mycobacterium tuberculosis"}
{"smiles": "COC(=O)CCCc1nc2ccccc2nc1N=Nc1ccccc1", "note": "[Compound B59, 4-(3-Phenylazoquinoxalin-2-yl) butanoic acid methyl ester]", "values": [{"measurement": "MIC99 in overexpressing strain relative to wild type", "setting": "M. tb.pFICTO-dapB vs M. tb H37Rv", "result": 2, "unit": "x MIC99"}, {"measurement": "MIC99", "setting": "Mycobacterium tuberculosis, 168 h, M. tb.pFICTO-dapB, 7 days, read-out: MIC99 against DapB-overexpressing strain", "result": 40, "unit": "µg/mL"}]}
